ChEMBL document CHEMBL4190175 (Medchemcomm, 2016)
In brackets after ≈: the same amount, converted by molar mass.

Key:
[1] = Fraction unbound in human plasma; type: ADME, cell-free
[2] = biological target: Sodium channel protein type 5 subunit alpha (Homo sapiens, UniProt Q14524); assay: Inhibition of Nav1.5 (unknown origin)
[3] = biological target: T1, Potassium voltage-gated channel subfamily KQT member 1 (Homo sapiens, UniProt P51787); assay: Inhibition of KvLQT1 (unknown origin)
T1 sequence (P51787 whole entry): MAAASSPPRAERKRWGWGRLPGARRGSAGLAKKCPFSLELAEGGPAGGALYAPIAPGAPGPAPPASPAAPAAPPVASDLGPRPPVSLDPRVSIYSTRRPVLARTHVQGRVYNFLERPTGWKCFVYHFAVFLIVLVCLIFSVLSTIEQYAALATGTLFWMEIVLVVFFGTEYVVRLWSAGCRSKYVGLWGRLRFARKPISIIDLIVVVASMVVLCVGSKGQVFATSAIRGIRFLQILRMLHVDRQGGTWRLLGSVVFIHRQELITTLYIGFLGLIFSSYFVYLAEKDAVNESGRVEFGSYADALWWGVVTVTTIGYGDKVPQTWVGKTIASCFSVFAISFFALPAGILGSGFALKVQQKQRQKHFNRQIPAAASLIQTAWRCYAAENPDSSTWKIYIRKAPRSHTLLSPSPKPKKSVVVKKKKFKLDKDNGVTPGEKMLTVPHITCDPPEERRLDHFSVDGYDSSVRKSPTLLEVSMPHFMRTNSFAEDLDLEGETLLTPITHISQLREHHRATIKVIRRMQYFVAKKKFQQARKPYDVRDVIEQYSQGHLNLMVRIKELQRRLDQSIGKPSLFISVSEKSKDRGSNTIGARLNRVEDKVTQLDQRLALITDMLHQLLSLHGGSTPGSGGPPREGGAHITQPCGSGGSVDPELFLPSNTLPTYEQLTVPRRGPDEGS

[4] = biological target: Transient receptor potential cation channel subfamily V member 1 (Homo sapiens, UniProt Q8NER1); assay: Inhibition of human TRPV1
[5] = Passive permeability of the compound in RRCK cells; type: ADME, cell-based, Canis lupus familiaris, MDCKII-LE; details: dog, MDCK; read-out: permeability
Cytochrome P450 2C8 = biological target: T2, Cytochrome P450 2C8 (Homo sapiens, UniProt P10632); assay: Inhibition of CYP2C8 (unknown origin); type: ADME
T2 sequence (P10632 whole entry): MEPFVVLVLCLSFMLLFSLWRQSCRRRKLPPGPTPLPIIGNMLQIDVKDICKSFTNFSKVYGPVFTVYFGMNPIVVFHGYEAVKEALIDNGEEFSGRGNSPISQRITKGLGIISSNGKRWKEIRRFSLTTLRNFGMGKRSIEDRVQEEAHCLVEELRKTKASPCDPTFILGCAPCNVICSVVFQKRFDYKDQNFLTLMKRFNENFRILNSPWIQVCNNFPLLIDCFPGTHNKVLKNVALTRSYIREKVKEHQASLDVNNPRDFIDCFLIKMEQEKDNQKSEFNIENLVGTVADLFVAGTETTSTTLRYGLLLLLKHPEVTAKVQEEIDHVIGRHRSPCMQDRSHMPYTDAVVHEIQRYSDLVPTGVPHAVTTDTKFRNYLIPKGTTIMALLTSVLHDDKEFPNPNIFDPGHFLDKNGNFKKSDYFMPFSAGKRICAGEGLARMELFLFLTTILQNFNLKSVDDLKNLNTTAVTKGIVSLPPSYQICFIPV

[6] = Antagonist activity at pig TRPA1 by electrophysiology assay; set-up: species or system Sus scrofa
[7] = Half life in rat; type: ADME, organism-based; details: in vivo
[8] = Drug uptake in Sprague-Dawley rat skin epidermal layer at 0.68 mg applied topically measured after 24 hrs; type: ADME, tissue-based, Skin epidermis; details: topical or ocular, read-out: Drug uptake
[9] = Lipophilicity, log D of the compound; type: physicochemical; details: octanol/water
Cytochrome P450 2C19 = Cytochrome P450 2C19 (Homo sapiens, UniProt P33261); assay: Inhibition of CYP2C19 (unknown origin); type: ADME
Cytochrome P450 3A4 = Cytochrome P450 3A4 (Homo sapiens, UniProt P08684); assay: Inhibition of CYP3A4 (unknown origin); type: ADME
[10] = biological target: Transient receptor potential cation channel subfamily A member 1 (Rattus norvegicus, UniProt Q6RI86); assay: Antagonist activity at rat TRPA1 by electrophysiology assay
[11] = Oral bioavailability in rat; type: ADME, organism-based; details: in vivo
Hepatocyte [12] = assay: Stability in human hepatocytes; type: ADME, cell-based
[13] = biological target: Transient receptor potential cation channel subfamily M member 8 (Homo sapiens, UniProt Q7Z2W7); assay: Inhibition of human TRPM8
[14] = Clearance in rat; type: ADME, organism-based; details: in vivo
[15] = Stability in dog plasma; type: ADME, cell-free, Canis lupus familiaris; details: read-out: Stability
Cytochrome P450 2C9 = Cytochrome P450 2C9 (Homo sapiens, UniProt P11712); assay: Inhibition of CYP2C9 (unknown origin); type: ADME
[16] = biological target: T3, Transient receptor potential cation channel subfamily A member 1 (Homo sapiens, UniProt O75762); assay: Antagonist activity at full length human TRPA1 at holding potential of 15 mV measured after 1 min by PatchXpress electrophysiology assay
Hepatocyte [17] = assay: Stability in rat hepatocytes; type: ADME, cell-based
[18] = Inhibition of GABA-A (unknown origin); set-up: species or system Homo sapiens
Cytochrome P450 2D6 = Cytochrome P450 2D6 (Homo sapiens, UniProt P10635); assay: Inhibition of CYP2D6 (unknown origin); type: ADME
[19] = Kinetic solubility of the compound at pH 6.5; type: physicochemical; details: buffer, read-out: Kinetic_solubility
[20] = Dissociation constant, pKa of the compound; type: physicochemical
[21] = biological target: T3, Transient receptor potential cation channel subfamily A member 1; assay: Antagonist activity at human TRPA1 by electrophysiology assay
Salmonella typhimurium = assay: Genotoxicity in Salmonella typhimurium by Ames test; type: toxicity, organism-based; details: salmonella enterica subsp. enterica serovar typhimurium
[22] = Volume of distribution at steady state in rat; type: ADME, organism-based; details: in vivo, read-out: Vdss
[23] = Antagonist activity at full length opossum TRPA1 at holding potential of 15 mV measured after 1 min by PatchXpress electrophysiology assay; set-up: species or system Monodelphis domestica
[24] = Fraction unbound in dog plasma; type: ADME, cell-free, Canis lupus familiaris
[25] = Stability in human liver microsomes assessed as metabolic turnover number at 10 uM after 15 mins by LC-MS/UV analysis; type: ADME, microsome; details: read-out: Stability
[26] = Stability in rat plasma; type: ADME, cell-free; details: read-out: Stability
[27] = Permeability in Sprague-Dawley rat skin at 0.68 mg applied topically measured after 24 hrs; type: ADME, tissue-based, Zone of skin; details: in vivo, topical_or_ocular
[28] = Stability in rat liver microsomes; type: ADME, microsome; details: read-out: Stability
[29] = Inhibition of sodium channel site 2 (unknown origin); set-up: species or system Homo sapiens
[30] = Drug uptake in Sprague-Dawley rat skin dermal layer at 0.68 mg applied topically measured after 24 hrs; type: ADME, tissue-based, Dermis; details: topical or ocular, read-out: Drug uptake
[31] = Ratio of permeability from basolateral to apical side over apical to basolateral side in RRCK cells expressing MDR1; type: ADME, cell-based, Canis lupus familiaris; details: dog, mdckii-le
[32] = biological target: Transient receptor potential cation channel subfamily A member 1 (Mus musculus, UniProt Q8BLA8); assay: Antagonist activity at mouse TRPA1 by electrophysiology assay
[33] = Antagonist activity at opossum TRPA1 hS5 chimera containing (867 to 983 residues) expressed in 293-T-REx cells at holding potential of 15 mV measured after 1 min by PatchXpress electrophysiology assay; type: cell-based; details: Monodelphis domestica, 293Trex

T3 sequence (O75762 whole entry): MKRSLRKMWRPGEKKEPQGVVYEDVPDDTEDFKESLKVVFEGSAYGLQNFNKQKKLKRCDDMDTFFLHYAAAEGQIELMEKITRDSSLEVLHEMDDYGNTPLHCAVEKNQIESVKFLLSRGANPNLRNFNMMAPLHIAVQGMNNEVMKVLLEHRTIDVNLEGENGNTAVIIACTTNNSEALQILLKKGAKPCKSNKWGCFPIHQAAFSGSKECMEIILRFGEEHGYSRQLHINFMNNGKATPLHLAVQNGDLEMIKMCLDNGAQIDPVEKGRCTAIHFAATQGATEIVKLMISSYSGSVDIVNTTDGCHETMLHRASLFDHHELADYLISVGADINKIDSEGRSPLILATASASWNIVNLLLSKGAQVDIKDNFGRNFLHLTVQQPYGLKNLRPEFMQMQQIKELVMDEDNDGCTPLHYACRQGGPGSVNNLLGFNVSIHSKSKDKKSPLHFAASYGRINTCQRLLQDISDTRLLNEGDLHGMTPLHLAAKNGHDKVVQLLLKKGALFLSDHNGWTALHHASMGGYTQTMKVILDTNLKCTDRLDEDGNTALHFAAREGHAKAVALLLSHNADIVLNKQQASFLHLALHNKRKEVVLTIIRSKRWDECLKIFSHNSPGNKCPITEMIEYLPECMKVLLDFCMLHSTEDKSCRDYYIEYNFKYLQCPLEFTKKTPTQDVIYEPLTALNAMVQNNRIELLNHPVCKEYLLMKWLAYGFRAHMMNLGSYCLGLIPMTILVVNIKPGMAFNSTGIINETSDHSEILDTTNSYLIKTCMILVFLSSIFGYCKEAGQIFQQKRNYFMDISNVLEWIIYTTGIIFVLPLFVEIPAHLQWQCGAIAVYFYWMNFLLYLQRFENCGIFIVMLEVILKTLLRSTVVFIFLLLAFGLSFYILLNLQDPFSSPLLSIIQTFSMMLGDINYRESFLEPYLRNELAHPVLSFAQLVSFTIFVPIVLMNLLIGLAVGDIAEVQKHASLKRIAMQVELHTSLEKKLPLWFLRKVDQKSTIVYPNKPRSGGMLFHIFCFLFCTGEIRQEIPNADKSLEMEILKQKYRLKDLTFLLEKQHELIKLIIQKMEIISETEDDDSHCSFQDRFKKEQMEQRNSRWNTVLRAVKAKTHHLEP
Sequence of Cytochrome P450 3A4 (P08684 whole entry): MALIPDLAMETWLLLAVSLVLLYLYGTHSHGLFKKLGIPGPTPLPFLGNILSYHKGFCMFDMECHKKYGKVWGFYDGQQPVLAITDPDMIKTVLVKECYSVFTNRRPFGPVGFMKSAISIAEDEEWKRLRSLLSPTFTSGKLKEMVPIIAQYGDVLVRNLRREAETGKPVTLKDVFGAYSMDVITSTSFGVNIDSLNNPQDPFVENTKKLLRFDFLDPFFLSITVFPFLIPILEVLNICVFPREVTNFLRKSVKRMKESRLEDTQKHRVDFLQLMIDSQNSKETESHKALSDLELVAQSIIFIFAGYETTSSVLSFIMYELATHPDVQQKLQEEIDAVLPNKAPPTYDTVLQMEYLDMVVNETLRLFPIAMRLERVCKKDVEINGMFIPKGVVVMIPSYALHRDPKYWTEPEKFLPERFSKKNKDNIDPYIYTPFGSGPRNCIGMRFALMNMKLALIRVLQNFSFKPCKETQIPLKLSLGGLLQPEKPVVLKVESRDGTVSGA
Sequence of Transient receptor potential cation channel subfamily A member 1 (Mus musculus, UniProt Q8BLA8) (Q8BLA8 whole entry, the tested form may be a part): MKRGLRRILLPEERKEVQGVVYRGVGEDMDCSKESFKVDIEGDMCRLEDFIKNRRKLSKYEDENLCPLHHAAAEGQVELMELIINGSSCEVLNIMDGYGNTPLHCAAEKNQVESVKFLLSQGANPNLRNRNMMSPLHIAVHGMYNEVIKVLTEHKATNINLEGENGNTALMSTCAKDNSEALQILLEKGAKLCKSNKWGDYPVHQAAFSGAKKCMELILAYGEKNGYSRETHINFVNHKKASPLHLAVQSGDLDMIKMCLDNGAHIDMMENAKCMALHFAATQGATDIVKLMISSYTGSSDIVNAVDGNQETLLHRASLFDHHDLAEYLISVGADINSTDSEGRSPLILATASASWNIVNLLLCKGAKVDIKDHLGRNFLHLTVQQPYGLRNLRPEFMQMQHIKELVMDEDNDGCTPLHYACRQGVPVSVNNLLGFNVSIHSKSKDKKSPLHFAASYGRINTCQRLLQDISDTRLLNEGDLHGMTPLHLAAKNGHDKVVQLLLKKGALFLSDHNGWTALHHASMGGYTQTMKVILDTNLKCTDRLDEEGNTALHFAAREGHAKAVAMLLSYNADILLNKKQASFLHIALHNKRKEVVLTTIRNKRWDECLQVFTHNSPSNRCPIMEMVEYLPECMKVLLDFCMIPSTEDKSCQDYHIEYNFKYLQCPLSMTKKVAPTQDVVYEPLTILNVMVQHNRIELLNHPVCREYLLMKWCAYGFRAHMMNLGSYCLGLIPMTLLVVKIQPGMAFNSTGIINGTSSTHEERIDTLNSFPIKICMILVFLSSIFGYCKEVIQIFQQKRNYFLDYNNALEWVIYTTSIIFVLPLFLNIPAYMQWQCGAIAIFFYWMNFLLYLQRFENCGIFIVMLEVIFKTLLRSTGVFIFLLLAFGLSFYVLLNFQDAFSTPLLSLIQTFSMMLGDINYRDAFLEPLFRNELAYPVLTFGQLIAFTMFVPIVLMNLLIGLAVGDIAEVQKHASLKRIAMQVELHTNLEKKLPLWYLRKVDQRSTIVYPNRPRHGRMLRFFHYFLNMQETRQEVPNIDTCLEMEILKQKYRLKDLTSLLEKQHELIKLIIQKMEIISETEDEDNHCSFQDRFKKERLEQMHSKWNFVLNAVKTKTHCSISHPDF
Sequence of Sodium channel protein type 5 subunit alpha (Q14524 whole entry): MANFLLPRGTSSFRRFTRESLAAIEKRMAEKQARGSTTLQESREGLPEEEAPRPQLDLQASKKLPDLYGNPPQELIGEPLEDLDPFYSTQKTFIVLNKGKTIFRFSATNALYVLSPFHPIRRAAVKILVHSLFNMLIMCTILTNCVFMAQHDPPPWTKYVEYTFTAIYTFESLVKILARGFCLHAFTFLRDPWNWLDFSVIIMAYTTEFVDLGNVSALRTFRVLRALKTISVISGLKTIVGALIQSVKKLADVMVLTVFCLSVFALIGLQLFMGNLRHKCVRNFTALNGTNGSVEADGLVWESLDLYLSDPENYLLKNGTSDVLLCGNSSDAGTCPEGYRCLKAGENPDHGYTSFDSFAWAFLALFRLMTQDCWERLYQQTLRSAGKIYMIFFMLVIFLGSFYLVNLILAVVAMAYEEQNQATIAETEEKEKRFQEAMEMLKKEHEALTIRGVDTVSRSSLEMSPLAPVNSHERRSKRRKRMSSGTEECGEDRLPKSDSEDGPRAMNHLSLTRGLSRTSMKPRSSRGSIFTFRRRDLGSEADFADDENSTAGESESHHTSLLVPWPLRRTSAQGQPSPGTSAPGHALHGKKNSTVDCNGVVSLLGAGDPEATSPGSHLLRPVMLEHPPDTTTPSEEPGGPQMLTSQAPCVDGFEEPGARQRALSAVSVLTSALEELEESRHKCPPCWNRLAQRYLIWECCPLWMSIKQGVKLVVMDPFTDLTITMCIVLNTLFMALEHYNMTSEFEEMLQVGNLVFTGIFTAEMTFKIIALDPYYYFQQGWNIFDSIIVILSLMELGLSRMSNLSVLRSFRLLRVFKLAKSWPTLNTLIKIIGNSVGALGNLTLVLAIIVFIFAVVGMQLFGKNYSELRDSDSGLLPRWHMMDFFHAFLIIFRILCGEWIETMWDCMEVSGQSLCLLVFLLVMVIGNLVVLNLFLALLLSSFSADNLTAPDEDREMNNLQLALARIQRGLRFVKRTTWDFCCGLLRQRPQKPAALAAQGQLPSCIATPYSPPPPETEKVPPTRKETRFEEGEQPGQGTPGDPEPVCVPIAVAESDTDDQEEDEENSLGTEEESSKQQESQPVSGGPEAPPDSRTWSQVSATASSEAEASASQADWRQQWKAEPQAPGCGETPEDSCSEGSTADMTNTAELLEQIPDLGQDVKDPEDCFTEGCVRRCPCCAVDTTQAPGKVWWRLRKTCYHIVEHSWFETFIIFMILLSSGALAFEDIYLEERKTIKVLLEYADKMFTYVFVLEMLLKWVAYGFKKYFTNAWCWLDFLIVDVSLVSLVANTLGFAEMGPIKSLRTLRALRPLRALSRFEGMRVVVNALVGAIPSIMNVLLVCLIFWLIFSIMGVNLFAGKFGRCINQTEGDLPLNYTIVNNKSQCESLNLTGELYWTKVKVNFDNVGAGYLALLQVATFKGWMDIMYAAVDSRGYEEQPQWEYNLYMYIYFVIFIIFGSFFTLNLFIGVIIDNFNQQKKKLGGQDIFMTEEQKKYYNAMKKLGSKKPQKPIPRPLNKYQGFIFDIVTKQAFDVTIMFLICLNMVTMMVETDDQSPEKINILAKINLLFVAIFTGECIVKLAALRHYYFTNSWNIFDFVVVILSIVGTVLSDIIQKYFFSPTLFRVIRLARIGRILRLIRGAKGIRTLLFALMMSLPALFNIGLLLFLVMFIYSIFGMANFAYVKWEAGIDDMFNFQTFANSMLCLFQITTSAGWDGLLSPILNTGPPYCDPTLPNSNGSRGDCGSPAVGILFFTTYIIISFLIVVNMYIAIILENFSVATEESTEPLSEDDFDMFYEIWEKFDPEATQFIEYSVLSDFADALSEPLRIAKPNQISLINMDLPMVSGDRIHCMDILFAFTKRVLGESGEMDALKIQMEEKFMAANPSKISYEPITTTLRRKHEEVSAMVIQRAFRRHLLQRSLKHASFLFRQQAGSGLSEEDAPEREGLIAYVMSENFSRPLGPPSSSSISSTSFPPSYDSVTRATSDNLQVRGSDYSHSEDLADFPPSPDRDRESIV

fraction unbound [1]: 0.0011
INH [3]: > 3000 nM
IC50 [4]: > 3000 nM
Papp [5]: 1 ×10⁻⁶ cm/s
IC50 (Cytochrome P450 2C8): 11800 nM
IC50 [6]: 65 nM
half-life [7]: 4.4 h
concentration at 24 h [8]: 3.13e+06 ng/g
logD [9]: 4.7 to 5
IC50 (Cytochrome P450 2C19): 3150 nM
IC50 (Cytochrome P450 3A4): 2160 nM
IC50 [10]: 3 nM
bioavailability [11]: 5%
Stability (Hepatocyte [12]): 38 µL/min/mg
IC50 [13]: > 3000 nM
clearance [14]: 42 mL/min/kg
half-life [15]: > 6 h
IC50 (Cytochrome P450 2C9): 11400 nM
IC50 [16]: 0.72 to 8 nM
Stability (Hepatocyte [17]): 30 µL/min/mg
IC50 [18]: 2300 nM
IC50 (Cytochrome P450 2D6): 450 nM
solubility kinetic [19]: 12 µM (≈ 6.11 µg/mL)
pKa [20]: 5.9
IC50 [21]: 0.7 nM
Vd [22]: 3.99 L/kg
IC50 [23]: ≥ 3000 nM
fraction unbound [24]: 0.0008
microsomal CLint at 10 µM [25]: 246 µL/min/mg
half-life [26]: > 6 h
permeability [27]: 0.1 ×10⁻⁵ cm/hr
microsomal CLint [28]: 524 µL/min/mg
IC50 [29]: 730 nM
concentration at 24 h [30]: 640000 ng/g
Ratio [31]: 11
IC50 [32]: 4 nM
IC50 [33]: 20 nM
SMILES: O=C(NC[C@@H](Cc1ccccc1)N1CCC(O)(C(F)(F)F)CC1)C1(c2ccc(Cl)cc2)CCCC1
INH [2]: > 3000 nM
Activity (Salmonella typhimurium): Non-Toxic
